Patent publication US20100063085A1, “METHOD OF TREATING LEARNING IMPAIRMENT IN DOWN'S SYNDROME SUBJECTS” (University Court of The University of Dundee, priority 2008, published 2010)
Read-outs that look alike come from different tables or passages of the source.

Legend:
Test in all cases: biochemical
MNK2 = MNK2 (Homo sapiens, UniProt Q9HBH9); conditions: read-out: MNK2 activity as percentage of control without inhibitor
Method: (§1) All assays (25.5 μl) were carried out at room temperature (21° C.) and were linear with respect to time and enzyme concentrations under the conditions used. Assays were performed for 30 minutes except assays for LCK and PKB which were performed for 15 minutes using Multidrop Micro reagent dispensers (Thermo Electron Corporation, Waltham, Mass. 02454, USA) in a 96-well format. The concentration of […] [γ-^33P] ATP (800 cpm/pmol) in the assays was one of three concentrations (5, 20 or 50 μM) in order to be at or below Km for ATP for the enzyme. Assays were initiated with MgATP and stopped by addition of 5 μl of 0.5M orthophosphoric acid. Assays were then harvested onto P81 filterplates using a unifilter harvester (PerkinElmer, Boston, Mass. 02118, USA), with a wash buffer of 50 mM orthophosphoric acid. Filterplates were then air dried overnight. 10 μl of Microscint O was added per well prior to counting for radioactivity.
(§2) The following kinases were assayed against the substrates indicated. Aurora B was assayed against the substrate peptide […] (300 μM), ERK8 and MST-2 were both assayed against MBP (0.33 mg/ml). IKKβ was assayed against the substrate peptide […] (300 μM), JNK3 was assayed against 3 μM ATF2[19-96]. MAPKAP-K3 and PKD1 were both assayed against […] (30 μM), MARK3 was assayed against CHKtide ([…]) substrate peptide (300 μM). MNK1 and MNK2 were both assayed against eIF4E protein (0.5 mg/ml). NEK7 was assayed against […] (300 μM), PIM2 was assayed against […] (300 μM), ΔPH PKBβ-S474D was assayed against Crosstide (30 μM), PLK1 was assayed against […] (300 μM). PRK2 was assayed against Long S6 peptide, […] (30 μM), RSK2 was assayed against […] (30 μM), SRC was assayed against cdc2 peptide, […], (300 μM) and SRPK1 was assayed against peptide […] (300 μM). All enzymes were diluted in 50 mM Tris/HCl pH 7.5, 0.1 mM EGTA, 1 mg/ml BSA, 0.1% β-mercaptoethanol buffer and assayed in an incubation containing 50 mM Tris/HCl pH7.5, 0.1 mM EGTA, 0.1% β-mercaptoethanol, CAMK-1 (5-20 mU) diluted in 50 mM Tris/HCl pH 7.5, 0.1 mM EGTA, 1 mg/ml BSA, 0.1% β-mercaptoethanol is assayed against substrate peptide […] in an incubation containing 50 mM Tris/HCl pH 7.5, 0.1 mM EGTA, 0.5 mM CaCl2, 0.3 μM calmodulin, 0.1% β-mereaptoethanol, 300 μM substrate peptide, 10 mM magnesium acetate and 0.05 mM [^33P-γ-ATP] (500-1000 cpm/pmole). EF2K (5-20 mU) diluted in 50 mM Hepes pH 6.6, 0.1% β-mercaptoethanol, 1 mg/ml BSA is assayed against a substrate peptide […] in an incubation containing 50 mM Hepes pH 6.6, 0.2 mM CaCl2, 0.3 μM Calmodulin, 0.05% b-mercaptoethanol, 300 μM substrate peptide, 10 mM magnesium acetate and 0.05 mM [^33P-γ-ATP] (500-1000 cpm/pmole).

ERK8 = target: T1, ERK8 (Homo sapiens, UniProt Q8TD08); conditions: read-out: ERK8 activity as percentage of control without inhibitor
T1 sequence (Q8TD08 1-544): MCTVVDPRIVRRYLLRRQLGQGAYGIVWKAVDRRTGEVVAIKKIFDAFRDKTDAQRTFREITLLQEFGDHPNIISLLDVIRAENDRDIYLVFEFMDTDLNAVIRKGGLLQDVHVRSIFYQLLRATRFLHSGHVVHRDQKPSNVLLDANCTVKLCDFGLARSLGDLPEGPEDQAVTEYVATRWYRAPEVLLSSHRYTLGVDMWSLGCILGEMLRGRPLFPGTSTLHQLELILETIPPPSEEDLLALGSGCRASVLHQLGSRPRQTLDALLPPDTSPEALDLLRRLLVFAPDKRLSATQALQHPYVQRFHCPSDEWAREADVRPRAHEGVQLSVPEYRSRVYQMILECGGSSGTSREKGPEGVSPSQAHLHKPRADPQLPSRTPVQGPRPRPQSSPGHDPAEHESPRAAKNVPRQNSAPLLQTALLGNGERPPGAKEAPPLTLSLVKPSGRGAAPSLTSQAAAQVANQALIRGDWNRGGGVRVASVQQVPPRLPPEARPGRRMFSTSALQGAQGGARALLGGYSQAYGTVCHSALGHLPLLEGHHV
Method: as §1, §2

MNK1 = MNK1 (Homo sapiens, UniProt Q9BUB5); conditions: read-out: MNK1 activity as percentage of control without inhibitor
Method: as §1, §2

MST2 = target: T2, MST2 (Homo sapiens, UniProt Q13188); conditions: read-out: MST2 activity as percentage of control without inhibitor
T2 sequence (Q13188 1-491): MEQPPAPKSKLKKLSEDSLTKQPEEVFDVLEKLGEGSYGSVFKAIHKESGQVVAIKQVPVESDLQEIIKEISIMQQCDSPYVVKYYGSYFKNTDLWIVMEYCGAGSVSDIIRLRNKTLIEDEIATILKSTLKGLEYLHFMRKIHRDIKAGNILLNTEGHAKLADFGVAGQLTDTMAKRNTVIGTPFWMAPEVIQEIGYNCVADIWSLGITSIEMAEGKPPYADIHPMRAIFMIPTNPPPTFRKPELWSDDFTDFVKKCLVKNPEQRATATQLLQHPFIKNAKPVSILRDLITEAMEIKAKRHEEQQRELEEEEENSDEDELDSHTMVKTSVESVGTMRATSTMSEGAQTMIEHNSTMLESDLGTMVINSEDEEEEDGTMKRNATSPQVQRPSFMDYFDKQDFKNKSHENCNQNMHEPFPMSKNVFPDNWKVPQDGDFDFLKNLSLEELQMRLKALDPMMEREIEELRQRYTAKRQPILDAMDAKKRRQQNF
Method: as §1, §2

MARK3 = MARK3 (Homo sapiens, UniProt P27448); conditions: read-out: MARK3 activity as percentage of control without inhibitor
Method: as §1, §2

SRPK1 = SRPK1 (Homo sapiens, UniProt Q96SB4); conditions: read-out: SRPK1 activity as percentage of control without inhibitor
Method: as §1, §2

Chain of MNK2 (Q9HBH9 whole entry, species assumed): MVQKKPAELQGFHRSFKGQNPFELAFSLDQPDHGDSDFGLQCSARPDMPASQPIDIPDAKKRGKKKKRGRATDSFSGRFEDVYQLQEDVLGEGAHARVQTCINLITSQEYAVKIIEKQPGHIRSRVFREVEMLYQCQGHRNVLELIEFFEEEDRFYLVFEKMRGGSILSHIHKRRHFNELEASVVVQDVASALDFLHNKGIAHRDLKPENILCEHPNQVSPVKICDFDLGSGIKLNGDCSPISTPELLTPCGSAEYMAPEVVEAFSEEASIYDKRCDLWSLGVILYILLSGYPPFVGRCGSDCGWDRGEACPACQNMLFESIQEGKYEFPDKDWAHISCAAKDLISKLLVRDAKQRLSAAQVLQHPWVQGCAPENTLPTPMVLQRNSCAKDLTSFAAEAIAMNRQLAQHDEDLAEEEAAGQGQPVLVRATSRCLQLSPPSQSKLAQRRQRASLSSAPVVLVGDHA
Chain of MNK1 (Q9BUB5 whole entry, species assumed): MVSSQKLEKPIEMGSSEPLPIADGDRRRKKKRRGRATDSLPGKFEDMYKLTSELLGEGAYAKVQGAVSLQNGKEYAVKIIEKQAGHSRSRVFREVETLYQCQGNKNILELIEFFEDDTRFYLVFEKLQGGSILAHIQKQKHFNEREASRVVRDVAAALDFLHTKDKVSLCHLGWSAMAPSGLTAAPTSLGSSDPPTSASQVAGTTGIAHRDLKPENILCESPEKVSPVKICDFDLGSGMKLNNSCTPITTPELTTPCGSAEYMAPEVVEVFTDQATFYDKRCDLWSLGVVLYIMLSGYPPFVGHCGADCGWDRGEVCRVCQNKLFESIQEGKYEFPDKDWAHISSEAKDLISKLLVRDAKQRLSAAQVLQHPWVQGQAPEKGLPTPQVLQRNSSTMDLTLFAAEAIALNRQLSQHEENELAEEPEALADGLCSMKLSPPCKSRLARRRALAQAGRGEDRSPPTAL
Chain of SRPK1 (Q96SB4 whole entry, species assumed): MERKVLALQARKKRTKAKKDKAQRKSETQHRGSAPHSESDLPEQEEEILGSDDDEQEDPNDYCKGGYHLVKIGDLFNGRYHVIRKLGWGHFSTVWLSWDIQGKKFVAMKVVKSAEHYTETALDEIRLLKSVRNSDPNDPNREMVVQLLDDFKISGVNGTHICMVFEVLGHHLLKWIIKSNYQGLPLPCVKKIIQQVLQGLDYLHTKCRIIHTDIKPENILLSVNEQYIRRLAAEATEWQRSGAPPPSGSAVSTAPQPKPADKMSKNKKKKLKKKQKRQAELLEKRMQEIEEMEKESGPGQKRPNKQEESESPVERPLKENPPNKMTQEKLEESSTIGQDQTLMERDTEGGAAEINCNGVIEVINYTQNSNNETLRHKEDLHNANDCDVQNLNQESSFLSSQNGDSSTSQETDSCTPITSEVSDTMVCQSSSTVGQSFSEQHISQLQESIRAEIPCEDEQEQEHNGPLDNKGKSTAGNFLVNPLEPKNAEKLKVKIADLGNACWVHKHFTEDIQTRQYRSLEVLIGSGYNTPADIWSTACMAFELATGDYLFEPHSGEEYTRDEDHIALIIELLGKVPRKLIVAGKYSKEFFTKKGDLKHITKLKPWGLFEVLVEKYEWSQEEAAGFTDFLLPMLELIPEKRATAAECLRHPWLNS
Chain of MARK3 (P27448 whole entry, species assumed): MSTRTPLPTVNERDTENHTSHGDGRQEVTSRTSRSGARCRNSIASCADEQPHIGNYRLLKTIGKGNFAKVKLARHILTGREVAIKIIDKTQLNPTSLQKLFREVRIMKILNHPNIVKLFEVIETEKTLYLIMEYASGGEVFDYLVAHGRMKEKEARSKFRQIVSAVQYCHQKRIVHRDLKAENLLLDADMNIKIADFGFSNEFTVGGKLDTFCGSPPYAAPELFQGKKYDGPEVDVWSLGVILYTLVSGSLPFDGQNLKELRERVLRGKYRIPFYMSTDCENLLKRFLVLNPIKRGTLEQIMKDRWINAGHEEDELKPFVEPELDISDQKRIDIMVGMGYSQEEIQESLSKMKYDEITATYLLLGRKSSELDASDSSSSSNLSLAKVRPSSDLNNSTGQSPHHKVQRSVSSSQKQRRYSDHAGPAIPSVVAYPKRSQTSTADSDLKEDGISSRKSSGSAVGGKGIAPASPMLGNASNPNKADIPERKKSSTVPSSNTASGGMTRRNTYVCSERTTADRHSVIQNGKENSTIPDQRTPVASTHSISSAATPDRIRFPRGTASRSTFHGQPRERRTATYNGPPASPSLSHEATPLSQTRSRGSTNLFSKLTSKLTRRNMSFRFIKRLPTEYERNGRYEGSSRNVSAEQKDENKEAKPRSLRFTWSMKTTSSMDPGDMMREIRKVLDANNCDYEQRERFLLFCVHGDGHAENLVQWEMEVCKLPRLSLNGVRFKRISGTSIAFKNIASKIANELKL

## COc1ccc2c3c([nH]c2c1)C(C)=NCC3 [Harmaline]
MNK2; inhibitor 1 μM
  remaining activity at 1 µM: 88%
MNK2; inhibitor 10 μM
  remaining activity at 10 µM: 77%
ERK8; inhibitor 1 μM
  remaining activity at 1 µM: 58%
ERK8; inhibitor 10 μM
  remaining activity at 10 µM: 21%
MNK1; inhibitor 1 μM
  remaining activity at 1 µM: 89%
MNK1; inhibitor 10 μM
  remaining activity at 10 µM: 82%
MST2; inhibitor 1 μM
  remaining activity at 1 µM: 98%
MST2; inhibitor 10 μM
  remaining activity at 10 µM: 105%
MARK3; inhibitor 1 μM
  remaining activity at 1 µM: 99%
MARK3; inhibitor 10 μM
  remaining activity at 10 µM: 103%
SRPK1; inhibitor 1 μM
  remaining activity at 1 µM: 104%
SRPK1; inhibitor 10 μM
  remaining activity at 10 µM: 97%

## CC1=NCCc2c1[nH]c1cc(O)ccc21 [Harmalol]
MNK2; inhibitor 1 μM
  remaining activity at 1 µM: 97%
MNK2; inhibitor 10 μM
  remaining activity at 10 µM: 71%
ERK8; inhibitor 1 μM
  remaining activity at 1 µM: 41%
ERK8; inhibitor 10 μM
  remaining activity at 10 µM: 21%
MNK1; inhibitor 1 μM
  remaining activity at 1 µM: 80%
MNK1; inhibitor 10 μM
  remaining activity at 10 µM: 48%
MST2; inhibitor 1 μM
  remaining activity at 1 µM: 85%
MST2; inhibitor 10 μM
  remaining activity at 10 µM: 74%
MARK3; inhibitor 1 μM
  remaining activity at 1 µM: 93%
MARK3; inhibitor 10 μM
  remaining activity at 10 µM: 84%
SRPK1; inhibitor 1 μM
  remaining activity at 1 µM: 88%
SRPK1; inhibitor 10 μM
  remaining activity at 10 µM: 72%

## COc1ccc2c(c1)[nH]c1c(C)nccc12 [Harmine]
MNK2
  remaining activity at 1 µM: 84%
  remaining activity at 10 µM: 98%
ERK8
  remaining activity at 1 µM: 25%
  remaining activity at 10 µM: 19%
MNK1
  remaining activity at 1 µM: 84%
  remaining activity at 10 µM: 52%
MST2
  remaining activity at 1 µM: 91%
  remaining activity at 10 µM: 81%
MARK3
  remaining activity at 1 µM: 86%
  remaining activity at 10 µM: 86%
SRPK1
  remaining activity at 1 µM: 86%
  remaining activity at 10 µM: 83%
